Reference: US20240058464A1 (Fortis Therapeutics, Inc., priority 2021, published 2024)

Assays:
[1] = test system: CD46 expression; test: CD46 expression by RNA-sequencing in unpaired pre-treatment and post-treatment tumor biopsies; assay type: in vivo, human; conditions: for CD46 expression Post: post-treatment biopsies
[2] = test system: CD46 expression; test: CD46 expression by RNA-sequencing in paired tumor biopsies before and after therapy; conditions: paired biopsies; for CD46 expression, Post-Treatment Biopsy / CD46 expression, Pre-Treatment Biopsy: RNA-seq log2-transformed counts;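 as to all read-outs here: FFPE human tumor biopsies, exome-capture RNA-seq, reads aligned to GRCh37, counts normalized for GC content, length and depth, summed per gene, log2-transformed, samples paired before versus after therapy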
[3] = Biliary Cancer, Post minus Pre, unpaired biopsies, log2-transformed counts
[4] = Biliary Cancer, post- vs pre-treatment unpaired biopsies
[5] = Biliary Cancer, unpaired, RNA-seq log2-transformed normalized counts
[6] = Colorectal Cancer, Post minus Pre, unpaired biopsies, log2-transformed counts
[7] = Colorectal Cancer, post- vs pre-treatment unpaired biopsies
[8] = Colorectal Cancer, unpaired, RNA-seq log2-transformed normalized counts
[9] = Esophageal Cancer, Post minus Pre, unpaired biopsies, log2-transformed counts
[10] = Esophageal Cancer, post- vs pre-treatment unpaired biopsies
[11] = Esophageal Cancer, unpaired, RNA-seq log2-transformed normalized counts
[12] = Gastric Cancer, Post minus Pre, unpaired biopsies, log2-transformed counts
[13] = Gastric Cancer, post- vs pre-treatment unpaired biopsies
[14] = Gastric Cancer, unpaired, RNA-seq log2-transformed normalized counts

Row | Structure (SMILES) | CD46 expression diff [1, 3] | CD46 expression Percentage change [1, 4] [%] | CD46 expression Post [1, 5] | CD46 expression diff [1, 6] | CD46 expression Percentage change [1, 7] [%] | CD46 expression Post [1, 8] | CD46 expression diff [1, 9] | CD46 expression Percentage change [1, 10] [%] | CD46 expression Post [1, 11] | CD46 expression diff [1, 12] | CD46 expression Percentage change [1, 13] [%] | CD46 expression Post [1, 14] | CD46 expression diff (post minus pre) ([2]; Colorectal Cancer) | Percent Change in CD46 expression ([2]; Colorectal Cancer) [%] | CD46 expression, Post-Treatment Biopsy ([2]; Colorectal Cancer) | CD46 expression diff (post minus pre) ([2]; Esophageal Cancer) | Percent Change in CD46 expression ([2]; Esophageal Cancer) [%] | CD46 expression, Post-Treatment Biopsy ([2]; Esophageal Cancer) | CD46 expression diff (post minus pre) ([2]; Pancreatic Cancer) | Percent Change in CD46 expression ([2]; Pancreatic Cancer) [%] | also measured
1 | Nc1nc2c(c(=O)[nH]1)N(C=O)C(CNc1ccc(C(=O)N[C@@H](CCC(=O)O)C(=O)O)cc1)CN2 (stereo partly shown) [leucovorin] | 0.00 | 0.1 | 5.92 | 0.08 | 1.2 | 6.46 | −0.05 | −0.9 | 5.84 | −0.11 | −1.8 | 5.68 | −0.07 | −1.0 | 6.30 | −0.14 | −2.3 | 5.74 | 0.09 | 1.5 | CD46 expression diff ([1]; Pancreatic Cancer, post minus pre, unpaired biopsies): −0.15; CD46 expression Percentage change ([1]; Pancreatic Cancer, post vs pre, unpaired biopsies): −2.5%; CD46 expression Post ([1]; Pancreatic Cancer, log2-transformed RNA-seq counts): 5.76; CD46 expression, Post-Treatment Biopsy ([2]; Pancreatic Cancer): 5.92
2 | CCNC(=O)[C@@H]1CCCN1C(=O)[C@H](CCCNC(=N)N)NC(=O)[C@H](CC(C)C)NC(=O)[C@@H](CC(C)C)NC(=O)[C@H](Cc1ccc(O)cc1)NC(=O)[C@H](CO)NC(=O)[C@H](Cc1c[nH]c2ccccc12)NC(=O)[C@H](Cc1c[nH]cn1)NC(=O)[C@@H]1CCC(=O)N1 [leuprolide] | – | – | – | – | – | – | – | – | – | – | – | – | – | – | – | – | – | – | – | – | CD46 expression diff ([1]; Breast Cancer, post minus pre, unpaired biopsies): −0.15; CD46 expression Percentage change ([1]; Breast Cancer, post vs pre, unpaired biopsies): −2.3%; CD46 expression Post ([1]; Breast Cancer, log2-transformed RNA-seq counts): 6.18; CD46 expression Pre ([1]; Breast Cancer, pre-treatment biopsies, log2-transformed RNA-seq counts): 6.33; CD46 expression diff ([1]; Prostate Cancer, Post minus Pre, unpaired biopsies, log2-transformed counts): −0.10; CD46 expression Percentage change ([1]; Prostate Cancer, post- vs pre-treatment unpaired biopsies): −1.6%; CD46 expression Post ([1]; Prostate Cancer, unpaired, RNA-seq log2-transformed normalized counts): 6.08; CD46 expression diff (post minus pre) ([2]; Prostate Cancer): −0.19; Percent Change in CD46 expression ([2]; Prostate Cancer): −3.1%; CD46 expression, Post-Treatment Biopsy ([2]; Prostate Cancer): 5.92; CD46 expression, Pre-Treatment Biopsy ([2]; Prostate Cancer): 6.11
3 | O=C(c1cc(Cc2n[nH]c(=O)c3ccccc23)ccc1F)N1CCN(C(=O)C2CC2)CC1 [olaparib] | – | – | – | – | – | – | – | – | – | – | – | – | – | – | – | – | – | – | – | – | CD46 expression diff ([1]; Breast Cancer, Post minus Pre, unpaired biopsies, log2-transformed counts): 0.04; CD46 expression Percentage change ([1]; Breast Cancer, post- vs pre-treatment unpaired biopsies): 0.6%; CD46 expression Post ([1]; Breast Cancer, unpaired, RNA-seq log2-transformed normalized counts): 6.15; CD46 expression diff ([1]; Ovarian Cancer, Post minus Pre, unpaired biopsies, log2-transformed counts): −0.02; CD46 expression Percentage change ([1]; Ovarian Cancer, post- vs pre-treatment unpaired biopsies): −0.3%; CD46 expression Post ([1]; Ovarian Cancer, unpaired, RNA-seq log2-transformed normalized counts): 5.70; CD46 expression diff (post minus pre) ([2]; Ovarian Cancer): −0.14; Percent Change in CD46 expression ([2]; Ovarian Cancer): −2.5%; CD46 expression, Post-Treatment Biopsy ([2]; Ovarian Cancer): 5.51
4 | C=CC(=O)Nc1cc(Nc2nccc(-c3cn(C)c4ccccc34)n2)c(OC)cc1N(C)CCN(C)C [osimertinib] | – | – | – | – | – | – | – | – | – | – | – | – | – | – | – | – | – | – | – | – | CD46 expression diff ([1]; Non-Small Cell Lung Cancer, post minus pre, unpaired biopsies): −0.29; CD46 expression Percentage change ([1]; Non-Small Cell Lung Cancer, post vs pre, unpaired biopsies): −4.4%; CD46 expression Post ([1]; Non-Small Cell Lung Cancer, log2-transformed RNA-seq counts): 6.23; CD46 expression diff (post minus pre) ([2]; Non-Small Cell Lung Cancer): −0.26; Percent Change in CD46 expression ([2]; Non-Small Cell Lung Cancer): −4.0%
5 | O=C1[O][Pt]2([NH][C@@H]3CCCC[C@H]3[NH]2)[O]C1=O [oxaliplatin] | 0.05 | 0.9 | 5.91 | 0.04 | 0.6 | 6.42 | −0.06 | −1.0 | 5.85 | −0.12 | −2.1 | 5.66 | −0.04 | −0.6 | 6.26 | −0.17 | −2.9 | 5.74 | 0.06 | 1.0 | CD46 expression diff ([1]; Pancreatic Cancer, Post minus Pre, unpaired biopsies, log2-transformed counts): −0.13; CD46 expression Percentage change ([1]; Pancreatic Cancer, post- vs pre-treatment unpaired biopsies): −2.2%; CD46 expression, Pre-Treatment Biopsy ([2]; Colorectal Cancer): 6.30; CD46 expression, Pre-Treatment Biopsy ([2]; Esophageal Cancer): 5.91; CD46 expression diff (post minus pre) ([2]; Gastric Cancer): 0.05; Percent Change in CD46 expression ([2]; Gastric Cancer): 0.8%; CD46 expression, Post-Treatment Biopsy ([2]; Gastric Cancer): 5.69; CD46 expression, Pre-Treatment Biopsy ([2]; Gastric Cancer): 5.64; CD46 expression, Post-Treatment Biopsy ([2]; Pancreatic Cancer): 5.93; CD46 expression, Pre-Treatment Biopsy ([2]; Pancreatic Cancer): 5.87
